Consider 27 compounds from US20240092799A1, “MNK INHIBITORS” (Hepagene Therapeutics (HK) Limited, priority 2020, published 2024).

MNK2, sequence (Q9HBH9 whole entry): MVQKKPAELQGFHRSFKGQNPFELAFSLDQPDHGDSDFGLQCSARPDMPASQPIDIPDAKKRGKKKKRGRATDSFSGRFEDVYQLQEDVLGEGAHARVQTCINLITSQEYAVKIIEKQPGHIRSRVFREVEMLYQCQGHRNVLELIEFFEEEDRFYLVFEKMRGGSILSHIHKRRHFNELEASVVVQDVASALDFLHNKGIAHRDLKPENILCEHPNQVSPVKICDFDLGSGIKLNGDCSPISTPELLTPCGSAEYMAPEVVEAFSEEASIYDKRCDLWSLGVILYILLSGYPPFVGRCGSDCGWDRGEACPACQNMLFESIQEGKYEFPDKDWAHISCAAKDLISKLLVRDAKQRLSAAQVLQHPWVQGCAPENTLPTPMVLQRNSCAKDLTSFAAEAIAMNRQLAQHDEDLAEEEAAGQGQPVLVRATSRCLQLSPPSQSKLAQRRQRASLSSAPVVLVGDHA

For the assay, the target named is MNK2 (Homo sapiens (Human), UniProt Q9HBH9). In words: MNK Biochemical Enzymatic Assay (ADP-Glo), MNK2 binding assay. The procedure, abridged:
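Human MNK1 or MNK2 was preincubated with a 10-point, 1:3 serial dilution of compound for 15 min at 25 °C. Substrate was then added and the reaction ran 60 min at 25 °C. ADP formed was read by ADP-Glo luminescence, and IC50 came from non-linear regression.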
For orientation: ADP-Glo first removes unused ATP, then detects ADP through luciferase.
Usually IC50 stands for the concentration needed to halve the response being measured. Low readings indicate higher potency, high ones lower potency. `COCCCNc1cc(Nc2cc(C)c3c([n+]2[O-])C2(CCCCC2)NC3=O)ncn1` [Compound XXIX-C, 2′-((6-((3-methoxypropyl)amino)pyrimidin-4-yl)amino)-4′-methyl-5′-oxo-5′,6′-dihydrospiro[cyclohexane-1,7′-pyrrolo[3,4-b]pyridine] 1′-oxide] came in with an IC50 of 10 to 100 nM.

`Cc1cc(Nc2cc(N[C@H]3CCCOC3)ncn2)[n+]([O-])c2c1C(=O)NC21CCCCC1` [Compound XXIX-E, (S)-4′-methyl-5′-oxo-2′-((6-((tetrahydro-2H-pyran-3-yl)amino)pyrimidin-4-yl)amino)-5′,6′-dihydrospiro[cyclohexane-1,7′-pyrrolo[3,4-b]pyridine] 1′-oxide]: the IC50 is 10 to 100 nM.

Turning to `Cc1cc(Nc2ncnc3[nH]ccc23)[n+]([O-])c2c1C(=O)NC21CCCCC1` [Compound XXIX-F, 2′-((7H-pyrrolo[2,3-d]pyrimidin-4-yl)amino)-4′-methyl-5′-oxo-5′,6′-dihydrospiro[cyclohexane-1,7′-pyrrolo[3,4-b]pyridine] 1′-oxide], the IC50 is 0.1 to 10 nM.

With `Cc1cc(Nc2cc(NC(=O)C3CCCC3)ncn2)[n+]([O-])c2c1C(=O)NC21CCCCC1` [Compound XXIX-G, 2′-((6-(cyclopentanecarboxamido)pyrimidin-4-yl)amino)-4′-methyl-5′-oxo-5′,6′-dihydrospiro[cyclohexane-1,7′-pyrrolo[3,4-b]pyridine] 1′-oxide], the IC50 was 0.1 to 10 nM.

On to `Cc1cc(Nc2ccnc(N[C@H]3CCOC3)c2)[n+]([O-])c2c1C(=O)NC21CCCCC1` [Compound XXIX-H, (S)-4′-methyl-5′-oxo-2′-((2-((tetrahydrofuran-3-yl)amino)pyridin-4-yl)amino)-5′,6′-dihydrospiro[cyclohexane-1,7′-pyrrolo[3,4-b]pyridine] 1′-oxide], for which the IC50 lay in the range of 100 to 1000 nM.

For `Cc1cc(Nc2cc(NCCO)ncn2)[n+]([O-])c2c1C(=O)NC21CCCCC1` [Compound XXIX-I, 2′-((6-((2-hydroxyethyl)amino)pyrimidin-4-yl)amino)-4′-methyl-5′-oxo-5′,6′-dihydrospiro[cyclohexane-1,7′-pyrrolo[3,4-b]pyridine] 1′-oxide], the IC50 is 10 to 100 nM.

`CC(=O)N1CC[C@H](Nc2cc(Nc3cc(C)c4c([n+]3[O-])C3(CCCCC3)NC4=O)ncn2)C1` [Compound XXIX-J, (S)-2′-((6-((1-acetylpyrrolidin-3-yl)amino)pyrimidin-4-yl)amino)-4′-methyl-5′-oxo-5′,6′-dihydrospiro[cyclohexane-1,7′-pyrrolo[3,4-b]pyridine] 1′-oxide] returned an IC50 of 100 to 1000 nM.

Take `Cc1cc(Nc2cc(NC3CCCC3)ncn2)[n+]([O-])c2c1C(=O)NC21CCCCC1` [Compound XXIX-L, 2′-((6-(cyclopentylamino)pyrimidin-4-yl)amino)-4′-methyl-5′-oxo-5′,6′-dihydrospiro[cyclohexane-1,7′-pyrrolo[3,4-b]pyridine] 1′-oxide]: the IC50 was 10 to 100 nM.

`Cc1cc(Nc2cc(NC3=NC(C)(C)CO3)ncn2)[n+]([O-])c2c1C(=O)NC21CCCCC1` [Compound XXIX-M, 2′-((6-((4,4-dimethyl-4,5-dihydrooxazol-2-yl)amino)pyrimidin-4-yl)amino)-4′-methyl-5′-oxo-5′,6′-dihydrospiro[cyclohexane-1,7′-pyrrolo[3,4-b]pyridine] 1′-oxide] had a half-maximal inhibitory concentration (IC50) of 100 to 1000 nM.

The compound `CC(=O)N(C)c1cccc(Nc2cc(Nc3cc(C)c4c([n+]3[O-])C3(CCCCC3)NC4=O)ncn2)c1` [Compound XXIX-N, 4′-methyl-2′-((6-((3-(N-methylacetamido)phenyl)amino)pyrimidin-4-yl)amino)-5′-oxo-5′,6′-dihydrospiro[cyclohexane-1,7′-pyrrolo[3,4-b]pyridine] 1′-oxide] gave an IC50 of 10 to 100 nM.

`Cc1cc(Nc2ncnc3[nH]cnc23)[n+]([O-])c2c1C(=O)NC21CCCCC1` [Compound XXIX-O, 2′-((9H-purin-6-yl)amino)-4′-methyl-5′-oxo-5′,6′-dihydrospiro[cyclohexane-1,7′-pyrrolo[3,4-b]pyridine] 1′-oxide]: the concentration for half-maximal inhibition (IC50) fell in the range of 10 to 100 nM.

In turn, `Cc1cc(Nc2cc(NCC3CCCO3)ncn2)[n+]([O-])c2c1C(=O)NC21CCCCC1` (stereo not drawn) [Compound XXIX-P, 4′-methyl-5′-oxo-2′-((6-(((tetrahydrofuran-2-yl)methyl)amino)pyrimidin-4-yl)amino)-5′,6′-dihydrospiro[cyclohexane-1,7′-pyrrolo[3,4-b]pyridine] 1′-oxide] registered an IC50 of 10 to 100 nM.

`Cc1cc(Nc2cc(NC3CNC3)ncn2)[n+]([O-])c2c1C(=O)NC21CCCCC1` [Compound XXIX-Q, 2′-((6-(azetidin-3-ylamino)pyrimidin-4-yl)amino)-4′-methyl-5′-oxo-5′,6′-dihydrospiro[cyclohexane-1,7′-pyrrolo[3,4-b]pyridine] 1′-oxide] showed an IC50 of 10 to 100 nM.

The compound `Cc1cc(Nc2cc(NC3CCOCC3)ncn2)[n+]([O-])c2c1C(=O)NC21CCCCC1` [Compound XXIX-R, 4′-methyl-5′-oxo-2′-((6-((tetrahydro-2H-pyran-4-yl)amino)pyrimidin-4-yl)amino)-5′,6′-dihydrospiro[cyclohexane-1,7′-pyrrolo[3,4-b]pyridine] 1′-oxide] displayed an IC50 of 100 to 1000 nM.

For `Cc1cc(Nc2cc(N[C@H]3CCNC3)ncn2)[n+]([O-])c2c1C(=O)NC21CCCCC1` [Compound XXIX-S, (S)-4′-methyl-5′-oxo-2′-((6-(pyrrolidin-3-ylamino)pyrimidin-4-yl)amino)-5′,6′-dihydrospiro[cyclohexane-1,7′-pyrrolo[3,4-b]pyridine] 1′-oxide], the IC50 was in the range of 10 to 100 nM.

In turn, `Cc1cc(Nc2cc(N[C@H]3C[C@H](O)C3)ncn2)[n+]([O-])c2c1C(=O)NC21CCCCC1` [Compound XXIX-T, trans-2′-((6-(((1r,3r)-3-hydroxycyclobutyl)amino)pyrimidin-4-yl)amino)-4′-methyl-5′-oxo-5′,6′-dihydrospiro[cyclohexane-1,7′-pyrrolo[3,4-b]pyridine] 1′-oxide] yielded a 50% inhibitory concentration (IC50) of 10 to 100 nM.

In the case of `Cc1cc(Nc2cc(NC(=O)N(C)C)ncn2)[n+]([O-])c2c1C(=O)NC21CCCCC1` [Compound XXIX-U, 2′-((6-(3,3-dimethylureido)pyrimidin-4-yl)amino)-4′-methyl-5′-oxo-5′,6′-dihydrospiro[cyclohexane-1,7′-pyrrolo[3,4-b]pyridine] 1′-oxide], the IC50 lay in the range of 10 to 100 nM.

Regarding `Cc1cc(Nc2cc(N[C@H]3CCC[C@@H]3O)ncn2)[n+]([O-])c2c1C(=O)NC21CCCCC1` [Compound XXIX-V, 2′-((6-(((1S,2S)-2-hydroxycyclopentyl)amino)pyrimidin-4-yl)amino)-4′-methyl-5′-oxo-5′,6′-dihydrospiro[cyclohexane-1,7′-pyrrolo[3,4-b]pyridine] 1′-oxide], the IC50 lay in the range of 10 to 100 nM.

For `Cc1cc(Nc2cc(N[C@@H]3CCC[C@@H]3O)ncn2)[n+]([O-])c2c1C(=O)NC21CCCCC1` [Compound XXIX-W, 2′-((6-(((1R,2S)-2-hydroxycyclopentyl)amino)pyrimidin-4-yl)amino)-4′-methyl-5′-oxo-5′,6′-dihydrospiro[cyclohexane-1,7′-pyrrolo[3,4-b]pyridine] 1′-oxide], the IC50 was 100 to 1000 nM.

Compound `Cc1cc(Nc2cc(N[C@@H]3CCC[C@H]3O)ncn2)[n+]([O-])c2c1C(=O)NC21CCCCC1` [Compound XXIX-X, 2′-((6-(((1R,2R)-2-hydroxycyclopentyl)amino)pyrimidin-4-yl)amino)-4′-methyl-5′-oxo-5′,6′-dihydrospiro[cyclohexane-1,7′-pyrrolo[3,4-b]pyridine] 1′-oxide] gave an IC50 of 10 to 100 nM.

`CCOC(=O)C1CCc2c(sc3ncnc(Nc4cc5c(s4)C(=O)NC54CCCCC4)c23)C1` (stereo not drawn) [Compound XXV-5, Ethyl 4-((6′-oxo-5′,6′-dihydrospiro[cyclohexane-1,4′-thieno[2,3-c]pyrrol]-2′-yl)amino)-5,6,7,8-tetrahydrobenzo[4,5]thieno[2,3-d]pyrimidine-7-carboxylate]: the half-maximal inhibitory concentration (IC50) lay in the range of 100 to 1000 nM.

On to `O=C1NC2(CCCCC2)c2cc(Nc3ncnc4sc5c(c34)CCC(C(=O)O)C5)sc21` (stereo not drawn) [Compound XXV-6, 4-((6′-Oxo-5′,6′-dihydrospiro[cyclohexane-1,4′-thieno[2,3-c]pyrrol]-2′-yl)amino)-5,6,7,8-tetrahydrobenzo[4,5]thieno[2,3-d]pyrimidine-7-carboxylic acid], for which the IC50 was 10 to 100 nM.

Compound `C[C@@H]1CN(C(=O)C2CCc3c(sc4ncnc(Nc5cc6c(s5)C(=O)NC65CCCCC5)c34)C2)CCN1C` (stereo partly drawn) [Compound XXV-A, 2′-((7-((R)-3,4-Dimethylpiperazine-1-carbonyl)-5,6,7,8-tetrahydrobenzo[4,5]thieno[2,3-d]pyrimidin-4-yl)amino)spiro[cyclohexane-1,4′-thieno[2,3-c]pyrrol]-6′(5′H)-one] showed an IC50 of 10 to 100 nM.

Compound `CN(C)C(=O)C1CCc2c(sc3ncnc(Nc4cc5c(s4)C(=O)NC54CCCCC4)c23)C1` (stereo not drawn) [Compound XXV-B, N,N-Dimethyl-4-((6′-oxo-5′,6′-dihydrospiro[cyclohexane-1,4′-thieno[2,3-c]pyrrol]-2′-yl)amino)-5,6,7,8-tetrahydrobenzo[4,5]thieno[2,3-d]pyrimidine-7-carboxamide] showed an IC50 of 10 to 100 nM.

`O=C1NC2(CCCCC2)c2cc(Nc3ncnc4sc5c(c34)CCC(C(=O)N3CCC3)C5)sc21` (stereo not drawn) [Compound XXV-D, 2′-((7-(azetidine-1-carbonyl)-5,6,7,8-tetrahydrobenzo[4,5]thieno[2,3-d]pyrimidin-4-yl)amino)spiro[cyclohexane-1,4′-thieno[2,3-c]pyrrol]-6′(5′H)-one]: the half-maximal inhibitory concentration (IC50) fell in the range of 10 to 100 nM.

As for `O=C1NC2(CCCCC2)c2nc(Nc3cc(N[C@H]4CCCOC4)ncn3)sc21` [Compound XXVIII-D, (S)-2′-((6-((tetrahydro-2H-pyran-3-yl)amino)pyrimidin-4-yl)amino)spiro[cyclohexane-1,4′-pyrrolo[3,4-d]thiazol]-6′(5′H)-one], the IC50 is 10 to 100 nM.

The compound `CC1(C)COC(Nc2cc(Nc3nc4c(s3)C(=O)NC43CCCCC3)ncn2)=N1` [Compound XXVIII-E, 2′-((6-((4,4-dimethyl-4,5-dihydrooxazol-2-yl)amino)pyrimidin-4-yl)amino)spiro[cyclohexane-1,4′-pyrrolo[3,4-d]thiazol]-6′(5′H)-one] returned a half-inhibitory concentration (IC50) greater than 1000 nM.
